Source: patent publication US20250361526A1, “[…] CYTOMEGALOVIRUS-DERIVED TOOL VIRUS, METHOD OF PRODUCING THE SAME AND APPLICATIONS THEREOF” (WUHAN INSTITUTE OF VIROLOGY, CHINESE ACADEMY OF SCIENCES, priority 2022, published 2025)

Test system: MCMV
Assay: In vivo challenge of newborn ICR mice with K181-Nluc/Green, live and organ imaging
Protocol: To verify whether recombinant virus K181-Nluc/Green can be applied to evaluate potential drugs, neutralizing antibodies, vaccines, etc. against CMV in vivo. The inventors of the present invention carried out in vivo challenge test with ICR mice in the Animal Biosafety Laboratory (ABSL-2). […] Twelve newborn ICR mice were divided into three groups: control group (PBS), placebo group (DMSO) and ganciclovir (GCV) treatment group. By intracerebroventricular injection (I.C.), 1 μl (4×10^5 PFU) K181-Nluc/Green virus solution was injected into the lateral ventricles of newborn mice (P0) to establish the brain infection model of MCMV virus. After 1 day of challenge, 50 mg/kg GCV was given to mice every day until the 7th day after infection, and the Nanoluc substrate (Cat. #N1120, Promega, USA) was intraperitoneally injected on the 1st, 3rd, 5th, 7th, 9th, 11th and 14th days after infection.
In addition, seven days after the mice were infected, one mouse was randomly selected from the placebo (DMSO) group and the GCV treatment group, and Nanoluc substrate was injected intraperitoneally. […] The organs and tissues of mice were taken, and the content of MCMV virus in organs and tissues of mice in different groups was evaluated by fluorescence activity.

What does the source list for `Nc1nc(O)c2ncn(COC(CO)CO)c2n1` [GCV, ganciclovir]?
Nluc or GFP signals in different organs of mice (I.C. 4×10^5 PFU K181-Nluc/Green, 50 mg/kg GCV every day, 7 days after infection (FIGS. 14 and 15)): no detection of apparent Nluc or GFP signals; MCMV replication and spreading in vivo (I.C. K181-Nluc/Green, 50 mg/kg GCV every day until the 7th day): effectively reduce the MCMV replication and spreading in vivo
